PubChem BioAssay AID463199 (Broad Institute, 2010)
Calls of active or inactive are those of the source.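 The calls were made as follows: active = AC50, the dose giving half-maximal effect, exceeds a fixed cutoff for a compound that rescues yeast growth under heat; inactive = the rest, inconclusive results apart.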

What follows are molecules tested on S. cerevisiae Burl-1 ts mutant growth, BacTiter-Glo, 38.5C 24 h (assay: growth induction of Burl-1 ts yeast mutant, dose response, counter-screen for SUMOylation pathway inhibitor project, whole organism, S. cerevisiae, luminescence (AID 463199)).
In the case of `NC(=O)C1CCCN(C(=S)Nc2cccc3ccccc23)C1` (configuration not stated), the AC50 is reported as > 42 µM (inactive). With `Cc1ccc(Oc2ccc(OCC(=O)Nc3ccncc3)cc2)cc1` the AC50 was > 42 µM (inactive). `C[N+](C)(C)CC(=O)Nc1ccc(Cl)cc1C(=O)c1ccccc1` was tested, and the AC50 was > 42 µM (inactive). With `COc1ccc(C(=O)NC(=S)Nc2ccc(CN3CCCCC3)cc2)cc1Cl` the AC50 was > 42 µM (inactive). In the case of `N#C/C(=C\c1c(N(Cc2ccccc2)Cc2ccccc2)nc2ccccn2c1=O)C(N)=O`, the AC50 is reported as > 42 µM (inactive). `C/C(CC(=O)Nc1cccnc1)=N\NC(=O)C(C)Oc1ccc(Cl)cc1Cl` (configuration not stated) was tested, and the AC50 was > 42 µM (inactive). With `CCOc1ccc(-c2nc(C#N)c(N3CCOCC3)o2)cc1` the AC50 was > 42 µM (inactive). With `O=C(Nc1ncccn1)c1ccc(C(F)(F)F)cc1` the AC50 was > 42 µM (inactive). With `CC1=CC2=NC(=O)/C(=C\c3cc(C)n(-c4ccccc4)c3C)C(=N)N2O1` the AC50 was > 42 µM (inactive). With `CC(c1ccccn1)N(CCN(C)C)C(=S)Nc1cccc(F)c1` (configuration not stated) the AC50 was > 42 µM (inactive). With `COc1ccc(CCN2CC(C(=O)N(C)CC(=O)Nc3cccc(F)c3)CC2=O)cc1OC` (configuration not stated) the AC50 was > 42 µM (inactive). `CCOC(=O)c1sc(NC(=O)C(CC)OC(=O)c2ccco2)nc1C` (configuration not stated) was tested, and the AC50 was > 42 µM (inactive). `O=C(c1cn(-c2ccccc2)nc1-c1cccs1)N1CCOCC1` was tested, and the AC50 was > 42 µM (inactive). In the case of `COC(C(=O)Nc1ccnn1C1CCN(Cc2cnn(C)c2)CC1)c1ccccc1` (configuration not stated), the AC50 is reported as > 42 µM (inactive). With `O=S(=O)(NCC1CCCO1)c1cc(Cl)ccc1Br` (configuration not stated) the AC50 was > 42 µM (inactive). In the case of `Cc1nnc(C)n1/N=C/c1cc2ccccc2nc1Cl`, the AC50 is reported as > 42 µM (inactive). For `O=C(COC(=O)[C@@H]1CC(O)CN1S(=O)(=O)c1ccccc1[N+](=O)[O-])Nc1ccc2ccccc2c1` (some centres not stated), the AC50 was > 42 µM (inactive). For `CCS(=O)(=O)N1CCC(C(=O)NCCCN2CCN(c3ccccc3F)CC2)CC1`, the AC50 was > 42 µM (inactive). With `CC1CC(N(C(=O)c2ccccc2Cl)c2ccccc2)c2ccccc2N1` (configuration not stated) the AC50 was > 42 µM (inactive). For `CC(=O)N1CCCc2cc(S(=O)(=O)Nc3ccc(C)cc3C)ccc21`, the AC50 was > 42 µM (inactive). With `CCOC(=O)C1(CCOc2ccccc2)CCN(Cc2cccc(OC)c2O)CC1` the AC50 was > 42 µM (inactive). In the case of `NC(=O)c1cccc2cc3ccccc3cc12`, the AC50 is reported as > 42 µM (inactive). For `CCOC(=O)C1(Cc2cccc(F)c2)CCN(C(=O)c2cnccn2)CC1`, the AC50 was > 42 µM (inactive). With `COc1cc(NC(=S)N2CCN(C(=O)C3CCCO3)CC2)c(OC)cc1Cl` (configuration not stated) the AC50 was > 42 µM (inactive). With `Cc1cc(C(F)(F)F)c(C#N)c(=O)[nH]1` the AC50 was > 42 µM (inactive). `O=C(N/N=C/C(Br)=C/c1ccccc1)c1cccnc1` was tested, and the AC50 was > 42 µM (inactive). `COc1cc(S(=O)(=O)N2CCN(c3ccccc3)CC2)ccc1F` was tested, and the AC50 was > 42 µM (inactive). In the case of `Cc1ccc(N/N=C2/CCCNC2=O)cc1`, the AC50 is reported as > 42 µM (inactive). With `CS(=O)(=O)N(CCc1ccccc1)CC(=O)NCc1cccnc1` the AC50 was > 42 µM (inactive). `Cc1sc2ncnc(N3CCC(C(=O)NNC(=O)COc4ccccc4F)CC3)c2c1C` was tested, and the AC50 was > 42 µM (inactive). With `Cc1ccc(-n2nnnc2SCC#N)cc1` the AC50 was > 42 µM (inactive). `COc1ccc(NC(=O)CN(C)C(=O)c2cc(C)on2)cc1` was tested, and the AC50 was > 42 µM (inactive). For `O=C1OC(Cc2ccccn2)C(O)=C1C1=NCCCN1` (configuration not stated), the AC50 was > 42 µM (inactive). `Fc1ccc(-c2nnc3ccc(N4CCCC4)nn23)cc1` was tested, and the AC50 was > 42 µM (inactive). For `CC(C)c1cc(N2CCOCC2)n2ncc(-c3ccccc3)c2n1`, the AC50 was > 42 µM (inactive). In the case of `O=S1(=O)CC(N2CCCCC2)C(N2CCCCC2)C1` (configuration not stated), the AC50 is reported as > 42 µM (inactive). For `CCOc1ccc(-n2cc(C(=O)NCCOC)c3cc(OC)c(OC)cc3c2=O)cc1`, the AC50 was > 42 µM (inactive). `C=C(Cl)COC(=O)C1C2C=CC(C2)C1C(=O)O` (configuration not stated) was tested, and the AC50 was > 42 µM (inactive). For `CCCCn1c(SCC(=O)Nc2cc(C)on2)nnc1-c1ccco1`, the AC50 was > 42 µM (inactive). In the case of `CCN(CC)CCNC(=O)CCn1c(=S)[nH]c2cc3c(cc2c1=O)OCO3`, the AC50 is reported as > 42 µM (inactive). In the case of `CC(C)C1=CC(=Nc2ccc(S(N)(=O)=O)cc2)C=C(C(C)C)C1=O`, the AC50 is reported as > 42 µM (inactive). With `O=[N+]([O-])c1ccc(-c2csc(N3CCc4ccccc4C3)n2)cc1` the AC50 was > 42 µM (inactive). For `CCNC(=O)/C(C#N)=C/c1c(N2CCCCCC2)nc2ccccn2c1=O`, the AC50 was > 42 µM (inactive). For `Cc1cc(C)cc(C(=O)Oc2cc(C)[nH]c(=O)c2[N+](=O)[O-])c1`, the AC50 was > 42 µM (inactive). `CC1=C/C(=N\OS(=O)(=O)c2ccccc2)C(C(C)C)=CC1=O` was tested, and the AC50 was > 42 µM (inactive). `O=C(c1ccc(Br)cc1)C(CN1CCOCC1)c1ccccc1` (configuration not stated) was tested, and the AC50 was 1.86 µM. For `CCOc1ccc2[nH]c(=O)c(CN(Cc3ccco3)C(CC)c3nnnn3Cc3ccccc3)cc2c1` (configuration not stated), the AC50 was > 42 µM (inactive). For `O=C(CCn1cnnn1)Nc1ccc(Cl)cc1Cl`, the AC50 was > 42 µM (inactive). For `COc1ccc(NC2CC(=O)N(C(C)C)C2=O)cc1` (configuration not stated), the AC50 was > 42 µM (inactive). `CCCOc1ccccc1C1NC(=O)NC(C)=C1C(=O)OCCOCC` (configuration not stated) was tested, and the AC50 was > 42 µM (inactive). `O=C1NC(c2ccccc2)C(C(=O)c2cccs2)C(O)(C(F)(F)F)N1` (configuration not stated) was tested, and the AC50 was > 42 µM (inactive). For `Cc1ccc(NC(=O)COC(=O)c2csc3c2CCC(C)C3)cc1S(=O)(=O)N1CCCCC1` (configuration not stated), the AC50 was > 42 µM (inactive). In the case of `O=C(O)C1C2CCC(O2)C1C(=O)NCCC1=CCCCC1` (configuration not stated), the AC50 is reported as 13.6 µM. `O=c1c2ccccc2ncn1-c1ccc(Cl)cc1Cl` was tested, and the AC50 was > 42 µM (inactive). With `CCC1=Nc2cc(C(=O)NCc3ccco3)ccc2Sc2ccccc21` the AC50 was > 42 µM (inactive). For `Cc1nnc(NC(=O)c2cccc(S(=O)(=O)N3CCCC3)c2)s1`, the AC50 was > 42 µM (inactive). For `c1ccc(CNc2ncnc3sc4c(c23)CCC4)nc1`, the AC50 was > 42 µM (inactive). For `Cc1ccc(N2C(=O)c3cccc4c(N5CCN(C)CC5)ccc(c34)C2=O)c2cccnc12`, the AC50 was > 42 µM (inactive). `O=C(Cn1cnc2ccccc2c1=O)c1ccc(OC(F)F)cc1` was tested, and the AC50 was > 42 µM (inactive). `Cc1cc(C)cc(OCC(=O)Nc2ccc(N3CCN(C(=O)c4ccco4)CC3)cc2)c1` was tested, and the AC50 was > 42 µM (inactive). `CCCCC(=O)N/N=C(\C)CC(=O)Nc1cc(Cl)ccc1OC` was tested, and the AC50 was > 42 µM (inactive). `CC1(OC(=O)CCc2ccccc2)C(=O)C=C2C=C(c3ccc(C#N)cc3)N(CC3CC3)C=C2C1=O` (configuration not stated) was tested, and the AC50 was > 42 µM (inactive). In the case of `CN1C(C(=O)Nc2ccccn2)=C(O)c2sccc2S1(=O)=O`, the AC50 is reported as > 42 µM (inactive). For `Cc1ccc(NC(=O)Cn2nc(C)c3ccccc3c2=O)cc1`, the AC50 was > 42 µM (inactive). `CC(=O)N1CCc2cc(S(=O)(=O)NCCC3=CCCCC3)ccc21` was tested, and the AC50 was > 42 µM (inactive). For `N=c1ncn(CC(O)CO)c2nc(N3CCOCC3)[nH]c12` (configuration not stated), the AC50 was > 42 µM (inactive). `Cc1ccc(NC(=O)CSCC(=O)Nc2ccccc2N2CCCC2)cc1` was tested, and the AC50 was > 42 µM (inactive). `CN(C)S(=O)(=O)N1CCc2ccccc2C1` was tested, and the AC50 was > 42 µM (inactive). For `CC1Cc2ccccc2N1C(=O)Cn1c(=O)cc(O)c2ccccc21` (configuration not stated), the AC50 was > 42 µM (inactive). In the case of `CN(NC(=O)c1ccccc1F)c1nc(C(F)(F)F)nc2ccccc12`, the AC50 is reported as > 42 µM (inactive). With `COCC(=O)n1nc(-c2ccc(Cl)cc2)nc1NCc1ccc(F)cc1` the AC50 was > 42 µM (inactive). For `O=C(CCSc1ccccc1)NNC(=O)c1ccccc1F`, the AC50 was > 42 µM (inactive). `COc1ccccc1CNc1nc(SC)ncc1CO` was tested, and the AC50 was > 42 µM (inactive). `O=C1NC2(CCCCC2)NN1c1ccccc1` was tested, and the AC50 was > 42 µM (inactive). With `CC1c2cc3c(cc2CCN1CC(=O)Nc1ccccc1)OCCCO3` (configuration not stated) the AC50 was > 42 µM (inactive). `COC(=O)C1CN(C#N)N(c2ccc(Cl)cc2)C12c1ccccc1-c1ccccc12` (configuration not stated) was tested, and the AC50 was > 42 µM (inactive). With `O=C(OCC#CCSc1nnc(-c2ccccc2)o1)c1cc2ccccc2o1` the AC50 was > 42 µM (inactive). For `Cc1cc(/C=N/NC(=O)c2ccsc2)c(C)n1-c1cnccn1`, the AC50 was > 42 µM (inactive). `COc1ccc(NC(=O)CC(C)C)c(OC)c1` was tested, and the AC50 was > 42 µM (inactive). With `Cc1ccccc1C(=O)/C=C1\NC(=O)CS1` the AC50 was > 21 µM (inactive). `COc1cccc(NC(=O)CNC(=O)c2ccc(C)cc2)c1` was tested, and the AC50 was > 42 µM (inactive). With `CC1=C(C#N)S(=O)(=O)C(C#N)C(c2ccccc2)C1` (configuration not stated) the AC50 was > 42 µM (inactive). In the case of `CCCN1CCN(CCCNC(=O)CCn2nc(-c3ccccc3)ccc2=O)CC1`, the AC50 is reported as > 42 µM (inactive). With `O=C(COC(=O)c1cc([N+](=O)[O-])ccc1N1CCOCC1)Nc1cccc(F)c1` the AC50 was > 42 µM (inactive). For `C/C(N)=C(/C#N)C(=O)CSc1nnc(-c2ccccc2)n1C`, the AC50 was > 42 µM (inactive). For `COc1cc(CN2CCN(c3ncccn3)CC2)cc(OC)c1`, the AC50 was > 42 µM (inactive). For `COc1ccc(C(=O)c2c(C)c3cc(C)ccc3n2CC(O)CN2CCOCC2)cc1` (configuration not stated), the AC50 was > 110 µM (inactive). For `O=C(O)/C=C/c1cccnc1`, the AC50 was > 42 µM (inactive). `Cc1ccc(S(=O)(=O)NCc2ccc(C(=O)N3CCN(c4ccccn4)CC3)cc2)cc1` was tested, and the AC50 was > 42 µM (inactive). For `Clc1ccc(CSc2nnc(CN3CCOCC3)n2-c2ccccc2)cc1Cl`, the AC50 was > 42 µM (inactive). With `CC1CCC(C(C)C)C(OC(=O)COC(=O)c2cccn2C)C1` (configuration not stated) the AC50 was > 42 µM (inactive). In the case of `CC(=O)N1CCN(CC(O)COc2ccc(OCc3ccccc3)cc2)CC1` (configuration not stated), the AC50 is reported as > 42 µM (inactive). With `CCOc1c(Cl)cc(CNCC(O)c2ccccc2)cc1OC` (configuration not stated) the AC50 was > 42 µM (inactive). `COc1cccc(/C=N/n2cnc3ccccc32)c1OC` was tested, and the AC50 was > 42 µM (inactive). With `Cc1ccc(S(=O)(=O)N2[C@@H](c3ccccc3)C(C(=O)O)=CC[C@H]2c2ccc(Cl)cc2)cc1` the AC50 was > 42 µM (inactive). `COc1ccc(C2=NOC(Cn3nc(C(=O)NCc4cccs4)cc3-c3ccccc3)C2)cc1` (configuration not stated) was tested, and the AC50 was > 42 µM (inactive). For `CSc1nc2ccc(NC(=O)c3c(F)cccc3F)cc2s1`, the AC50 was > 42 µM (inactive). In the case of `Cc1cccc(OCCC(=O)Nc2ccc(F)c(F)c2)c1`, the AC50 is reported as > 42 µM (inactive). For `Cn1cc(C(=O)Cc2ccccc2)c2ccccc21`, the AC50 was > 42 µM (inactive). With `O=S(=O)(c1ccc(C2CCCCC2)cc1)N1CCCC1` the AC50 was > 42 µM (inactive). `O=S(=O)(CCN1CCCCC1)Oc1ccc(Cl)cc1Cl` was tested, and the AC50 was > 42 µM (inactive). In the case of `CC(C)C(=O)NNc1ccc(C(F)(F)F)cn1`, the AC50 is reported as > 42 µM (inactive).
